According to PMC9120017, “Inhibition mechanism of the chloride channel TMEM16A by the pore blocker 1PBC” (Nature Communications, 2022):
Read-outs that look alike come from different tables or passages of the source.

Biological target: T1, mouse TMEM16A mutant I551A (Mus musculus, UniProt Q8BHY3, I551A)
T1 construct: expressed in transfected cells; host or cells: HEK293T
T1 sequence (Q8BHY3 1-960 I551A): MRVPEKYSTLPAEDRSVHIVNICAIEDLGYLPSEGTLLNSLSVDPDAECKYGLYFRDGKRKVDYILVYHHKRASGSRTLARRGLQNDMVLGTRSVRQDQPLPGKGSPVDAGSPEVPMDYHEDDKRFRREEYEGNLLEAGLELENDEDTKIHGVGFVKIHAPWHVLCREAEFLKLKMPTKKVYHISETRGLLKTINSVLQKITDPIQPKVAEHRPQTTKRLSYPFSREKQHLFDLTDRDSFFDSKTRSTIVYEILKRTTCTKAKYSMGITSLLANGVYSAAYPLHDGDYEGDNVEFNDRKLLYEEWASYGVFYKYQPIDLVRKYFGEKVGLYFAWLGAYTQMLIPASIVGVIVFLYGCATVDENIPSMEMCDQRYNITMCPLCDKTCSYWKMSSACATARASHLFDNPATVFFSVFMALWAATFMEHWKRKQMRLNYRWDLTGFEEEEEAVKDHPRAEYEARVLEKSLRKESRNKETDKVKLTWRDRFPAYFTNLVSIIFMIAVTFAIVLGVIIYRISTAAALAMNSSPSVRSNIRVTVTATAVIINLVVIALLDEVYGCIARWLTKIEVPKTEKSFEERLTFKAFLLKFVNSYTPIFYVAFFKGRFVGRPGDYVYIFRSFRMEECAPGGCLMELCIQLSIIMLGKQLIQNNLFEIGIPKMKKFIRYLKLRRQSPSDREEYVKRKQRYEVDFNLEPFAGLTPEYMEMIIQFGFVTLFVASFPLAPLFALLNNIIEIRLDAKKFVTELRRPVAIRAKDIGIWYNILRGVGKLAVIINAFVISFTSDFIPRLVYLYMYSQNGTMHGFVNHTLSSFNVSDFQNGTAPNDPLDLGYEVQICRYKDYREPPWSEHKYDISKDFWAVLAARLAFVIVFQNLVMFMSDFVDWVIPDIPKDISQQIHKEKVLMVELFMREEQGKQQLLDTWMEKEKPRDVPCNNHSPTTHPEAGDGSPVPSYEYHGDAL
Assay: Inside-out patch recording of 1PBC block, constitutively active mutant I551A
Type: cell-based
Conditions: for remaining activity at 3 µM: 3 µM 1PBC; for remaining activity at 10 µM: 10 µM 1PBC; for remaining activity at 30 µM: 30 µM 1PBC
Description: HEK293T cells (ATCC CRL-1573) were maintained in Dulbecco’s modified Eagle’s medium (DMEM; Sigma-Aldrich) supplemented with 10 U ml^−1 penicillin, 0.1 mg ml^−1 streptomycin (Sigma-Aldrich), 2 mM L-glutamine (Sigma-Aldrich), and 10% FBS (Sigma-Aldrich) in a humidified atmosphere containing 5% CO2 at 37 °C. HEK293S GnTI^− cells (ATCC CRL-3022) were maintained in HyClone HyCell TransFx-H medium (GE Healthcare) supplemented with 10 U ml^−1 penicillin, 0.1 mg ml^−1 streptomycin, 4 mM L-glutamine, 0.15% poloxamer 188 (Sigma-Aldrich), and 1% FBS in an atmosphere containing 5% CO2 at 185 rpm at 37 °C. The ac splice variant of mouse TMEM16A (UniProt ID: Q8BHY3), mouse TMEM16B (UniProt ID: Q8CFW1), or mouse TMEM16F (UniProt ID: Q6P9J9) bearing a 3C cleavage site, a Venus YFP, a Myc tag, and a Streptavidin-binding peptide (SBP) downstream of the open reading frame in a modified pcDNA3.1 vector (Invitrogen) were used as described previously[21],[31]. Mutations were introduced using a modified QuikChange method[58] and were verified by sequencing.
HEK293T cells were transfected with 3–4 μg DNA per 6 cm Petri dish using the calcium phosphate co-precipitation method and were used within 24–96 h after transfection. Recordings were performed on inside-out patches excised from HEK293T cells expressing the construct of interest. Patch pipettes were pulled from borosilicate glass capillaries (O.D. 1.5 mm, I.D. 0.86 mm, Sutter Instrument) and were fire-polished with a microforge (Narishige) before use. Pipette resistance was typically 3–8 MΩ when filled with the recording solutions detailed below. Seal resistance was typically 4 GΩ or higher. Voltage-clamp recordings were made using Axopatch 200B, Digidata 1550, and Clampex 10.7 (Molecular Devices). Analog signals were filtered with the in-built 4-pole Bessel filter at 10 kHz and were digitized at 20 kHz. Solution exchange was achieved using a gravity-fed system through a theta glass pipette mounted on an ultra-fast piezo-driven stepper (Siskiyou). […] All recordings were performed at 20 °C.
A symmetrical ionic condition was used throughout. Stock solution with Ca^2+-EGTA contained 150 mM NaCl, 5.99 mM Ca(OH)2, 5 mM EGTA, and 10 mM HEPES at pH 7.40. Stock solution with EGTA contained 150 mM NaCl, 5 mM EGTA, and 10 mM HEPES at pH 7.40. Free Ca^2+ concentrations were adjusted by mixing the stock solutions at the required ratios calculated using the WEBMAXC program (http://web.stanford.edu/~cpatton/webmaxcS.htm). Patch pipettes were filled with the stock solution with Ca^2+-EGTA, which has a free Ca^2+ concentration of 1 mM. 1PBC (ChemBridge) stock was reconstituted in anhydrous DMSO (Sigma-Aldrich) at 100 mM and stored at −20 °C. Working solutions with 1PBC were prepared by serial dilution. Unless otherwise stated, experiments were performed at a saturating Ca^2+ concentration as shown in Supplementary Table 1 and the primary data were corrected for current rundown as described previously[21],[25].
Concentration-response relations, obtained from the ratio of the I-V plots before and after the application of the blocker, were fitted to the Hill equation,1 I/Imax=1/1+IC50/[blocker]^h where I/Imax is the normalized current responses, IC50 defines the concentration at which inhibition is at its half-maximum, and h is the Hill coefficient.

[1] = 0 mV, 2 µM Ca2+, read-out: I/Imax
[2] = 0 mV, zero Ca2+, read-out: I/Imax

N#Cc1c(C(F)(F)F)cc(O)n2c1nc1ccccc12 [1PBC]
I/Imax_+80mV (0Ca, 3 μM 1PBC): 0.9297 | I/Imax_-80mV (0Ca, 3 μM 1PBC): 0.9659 | I/Imax_+80mV (0Ca, 10 μM 1PBC): 0.7725 | I/Imax_-80mV (0Ca, 10 μM 1PBC): 0.8504 | I/Imax_+80mV (0Ca, 30 μM 1PBC): 0.5277 | I/Imax_-80mV (0Ca, 30 μM 1PBC): 0.6475 | I/Imax_+80mV (0Ca, 100 μM 1PBC): 0.2921 | I/Imax_-80mV (0Ca, 100 μM 1PBC): 0.3933 | remaining activity at 1 µM (1 µM 1PBC, 0 mV, 2 µM Ca2+, read-out: I/Imax): 80.9% | remaining activity at 3 µM [1]: 60.1% | remaining activity at 3 µM [2]: 93.2% | remaining activity at 10 µM [1]: 31.1% | remaining activity at 10 µM [2]: 80.6% | remaining activity at 30 µM [1]: 14.8% | remaining activity at 30 µM [2]: 58.2% | remaining activity at 100 µM (100 µM 1PBC, 0 mV, zero Ca2+, read-out: I/Imax): 33.3% | I/Imax_+80mV (Ca, 1 μM 1PBC): 0.7719 | I/Imax_-80mV (Ca, 1 μM 1PBC): 0.9016 | I/Imax_+80mV (Ca, 3 μM 1PBC): 0.5347 | I/Imax_-80mV (Ca, 3 μM 1PBC): 0.7407 | I/Imax_+80mV (Ca, 10 μM 1PBC): 0.2656 | I/Imax_-80mV (Ca, 10 μM 1PBC): 0.4452 | I/Imax_+80mV (Ca, 30 μM 1PBC): 0.1169 | I/Imax_-80mV (Ca, 30 μM 1PBC): 0.2272
